The target in this experiment is T1, recombinant CETP (rCETP) (Homo sapiens, UniProt P11597).
T1 sequence (P11597 18-493): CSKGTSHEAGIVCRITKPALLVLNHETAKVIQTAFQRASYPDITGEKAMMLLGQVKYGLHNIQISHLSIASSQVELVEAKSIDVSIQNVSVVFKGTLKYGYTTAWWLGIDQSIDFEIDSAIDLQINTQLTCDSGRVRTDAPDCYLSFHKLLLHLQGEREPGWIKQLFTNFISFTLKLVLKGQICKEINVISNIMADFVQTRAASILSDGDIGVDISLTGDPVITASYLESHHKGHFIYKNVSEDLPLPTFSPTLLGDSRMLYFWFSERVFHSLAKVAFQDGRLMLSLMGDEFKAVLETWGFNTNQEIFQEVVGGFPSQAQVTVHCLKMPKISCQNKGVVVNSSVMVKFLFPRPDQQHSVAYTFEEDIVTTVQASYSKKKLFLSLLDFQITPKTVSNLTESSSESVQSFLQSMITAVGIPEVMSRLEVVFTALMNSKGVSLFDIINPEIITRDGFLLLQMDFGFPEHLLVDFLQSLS
The experiment is described as follows: CETP scintillation proximity assay (transfer of [3H]cholesteryl esters from HDL to biotinylated LDL). It counts as biochemical. As to conditions: for IC50: rCETP, 37° C., 4 hours, SPA, read-out: IC50 (inhibition of CETP transfer activity); for activity in the cholesteryl ester transfer protein (CETP) assay: statement in words. On the procedure:
This assay used a commercially available CETP Scintillation Proximity Assay kit (Amersham TRKQ7015). In this assay, the transfer of [^3 H]cholesteryl esters from high density lipoprotein (HDL) to biotinylated low density lipoproteins (LDL) was measured following incubation of donor and acceptor particles in the presence of recombinant CETP (rCETP; see Wang S. et al J. Biol. Chem. (1992) 267:1746-17490 which is herein incorporated by reference). Following incubation, the reaction was terminated and transfer was measured in a single step addition of streptavidin SPA beads, formulated in an assay terminal buffer (Amersham). The rate of increase in signal was proportional to the transfer of [^3 H]cholesteryl ester by CETP.
To 96-well microtiter plates ([…] Microlite) was pipetted 5 μl of sample (or buffer for blank) of appropriate dilution. […] As a control, 5 μl of CETP monoclonal antibody TP-1, 1:10 dilution from ascites was added. The reaction was started by adding 45 μl of the following mixtures to each well.
20 μl of assay buffer (from kit)
10 μl ^3 H]Cholesteryl ester-HDL (from kit)
10 μl of biotinylated LDL (from kit)
The contents of the plate were mixed briefly by tapping the plate gently and then the plate was sealed with parafiim to prevent evaporation during the incubation. The plates were incubated at 37° C. for 4 hours. After incubation the reaction was stopped by adding 200 μl of streptavidin beads to each well. The beads were shaken gently before addition. The mixture was incubated at room temperature for 30 minutes to allow the assay to come to equilibrium with beads. Dpm were counted on a TopCount (Packard Instrument Company, Downers Grove, Ill.) (A conventional scintillation counter with window settings fully open may also be used).
For orientation: Scintillation proximity formats need no separation of bound from free tracer.

The IC50 is the concentration at which inhibition is half-maximal. Turning to `COc1ccc(O)c(O)c1/C=C1\[C@@H](C)CC[C@H]2C(C)(C)CCC[C@]12C` (relative stereo) [Compound B, wiedendioI-B], the half-inhibitory concentration (IC50) came out at 2900 nM and the “activity in the cholesteryl ester transfer protein (CETP) assay” value is “active”.

`COc1ccc(O)c(O)c1CC1=C(C)CC[C@H]2C(C)(C)CCC[C@]12C` (relative stereo) [Compound A, wiedendioI-A]: the IC50 is 2000 nM and the “activity in the cholesteryl ester transfer protein (CETP) assay” value is “active”.

The values above are taken from patent publication US5446207A, “Anti-dyslipidemic agents” (Harbor Branch Oceanographic Institution, Inc., priority 1993, dated 1995).
